Consider one molecule from patent US20200407674A1, “CELL HOLDING AND TRANSPORTING DEVICE” (Stem Cell & Device Laboratory, Inc., priority 2018, published 2020).

Each structure is given as a SMILES string.

The experiment concerns human iPS cell-derived cardiac myocytes. The experiment in a line: Extracellular potential of cultured cardiac myocytes measured with MEA probe using device 1700. It is filed as cell-based. As to conditions: dofetilide 0.0003, 0.001, 0.003 μM vs DMSO alone; MEA probe (MED64 System); FIG. 23. The text has this: The method of using the device for retaining and transporting cells 1700 when measuring cell characteristics is described here by taking an example of measuring an extracellular potential generated by cell activity of cardiac myocytes that is formed in the device for retaining and transporting cells 1700. An MEA (Multi-Electrode Array) probe P is used for measuring the extracellular potential. The MEA probe P is a device for measuring the extracellular potential generated by cellular activity. […] The substrate PB has a thin plate shape, and the molten wall PW is formed on the substrate PB. The melted wall PW has a cylindrical shape with one end open, and stores a medium inside, forming a cell arrangement space PS for placing the cells to be tested. […] The extracellular potential of the cultured cardiac myocytes was measured using the device 1700 that is formed using polycarbonate and that has a base 1701 (diameter: 6 mm, thickness: 0.7 mm), a through hole 1703 (diameter: 1.5 mm), a cell culture holding part 105 made of an oriented fiber sheet with a pitch of 10 μm, a manipulating part 1707, and the air vent section 1711, and the MEA probe P (MED64 System, Alpha MED Scientific Inc.). […] The drug response of the cultured cardiac myocytes can be measured by means of the extracellular potential by changing the conditions of the drug to be administered to the cultured cardiac myocytes. […]

With `CN(CCOc1ccc(NS(C)(=O)=O)cc1)CCc1ccc(NS(C)(=O)=O)cc1` [dofetilide, Dofetilide], the “time required from the first peak potential to the second peak potential” value is on record as “prolonged depending on the concentration”.
